Values of other authors, collected in US20050181032A1, “Metastable pharmaceutical compositions” (Acrux DDS Pty Ltd., priority 2002, published 2005).

In the case of C#C[C@]1(O)CC[C@H]2[C@@H]3CCc4cc(O)ccc4[C@H]3CC[C@@]21C [EE2, Ethinyl Estradiol], the LogP is given as 3.91.
